Among the data in ChEMBL document CHEMBL6071198, “Advances in Cancer Treatment and Monitoring: Insights from KRAS Inhibitors and Germline Epitope Burden Monitoring” (ACS Med Chem Lett, 2024) are IC50 values, retold here.

One assay deals with GTPase KRas/RAF1 (Homo sapiens, UniProt P01116). Description: Inhibition of biotinylated wild type KRAS (1 to 169 residues) (unknown origin)/CRAF RBD (unknown origin) protein-protein interaction preincubated for 60 mins followed by SOS1 and GTPgs addition measured after 60 mins by FRET assay.
A short description of assay [1]: Inhibition of biotinylated KRAS G12D mutant (unknown origin)/CRAF RBD (unknown origin) protein-protein interaction preincubated for 60 mins followed by SOS1 and GTPgs addition measured after 60 mins by FRET assay. More on the design: species or system Homo sapiens.

Take `Cc1ncsc1-c1ccc([C@H](C)NC(=O)[C@H]2C[C@@H](O)CN2C(=O)[C@@H](NC(=O)CCOCCCN2CCC[C@H]2COc2nc(N3CC4CCC(C3)N4)c3cc(Cl)c(-c4ccc(F)c5sc(N)c(C#N)c45)c(F)c3n2)C(C)(C)C)cc1`: the IC50 against GTPase KRas/RAF1 came to 0.0259 µM; in assay [1], 0.00818 µM.

As for `C#Cc1c(F)ccc2cc(O)cc(-c3ncc4c(N5CC6CCC(C5)N6)nc(OC[C@@H]5CCCN5CCCOCCC(=O)N[C@H](C(=O)N5C[C@H](O)C[C@@H]5C(=O)N[C@@H](C)c5ccc(-c6ccncc6C#N)cc5)C(C)(C)C)nc4c3F)c12`, the IC50 worked out at 0.0242 µM against GTPase KRas/RAF1 and 0.00793 µM in assay [1].

In the case of `C#Cc1c(F)ccc2cc(O)cc(-c3ncc4c(N5CC6CCC(C5)N6)nc(OC[C@@H]5CCCN5CCCOCCC(=O)N[C@H](C(=O)N5C[C@H](O)C[C@@H]5C(=O)N[C@@H](C)c5ccc(-c6c(F)cccc6F)cc5)C(C)(C)C)nc4c3F)c12`, the IC50 against GTPase KRas/RAF1 was 0.0419 µM; in assay [1], 0.0094 µM.

Take `Cc1ncsc1-c1ccc([C@H](C)NC(=O)[C@H]2C[C@@H](O)CN2C(=O)[C@@H](NC(=O)CCOCCCN2CCC[C@H]2COc2nc(N3CC4CCC(C3)N4)c3cnc(-c4cc(O)cc5cccc(F)c45)c(F)c3n2)C(C)(C)C)cc1`: the IC50 against GTPase KRas/RAF1 was found to be 0.158 µM; in assay [1] it was 0.00821 µM.

As to `C[C@H](NC(=O)[C@H]1C[C@@H](O)CN1C(=O)[C@@H](NC(=O)CCOCCCN1CCC[C@H]1COc1nc(N2CC3CCC(C2)N3)c2cc(Cl)c(-c3ccc(F)c4sc(N)c(C#N)c34)c(F)c2n1)C(C)(C)C)c1ccc(-c2c(F)cccc2F)cc1`, the IC50 turned out to be 0.0777 µM against GTPase KRas/RAF1 and 0.00767 µM in assay [1].

As for `C[C@H](NC(=O)[C@H]1C[C@@H](O)CN1C(=O)[C@@H](NC(=O)CCOCCCN1CCC[C@H]1COc1nc(N2CC3CCC(C2)N3)c2cc(C(F)(F)F)c(-c3ccc(F)c4sc(N)c(C#N)c34)c(F)c2n1)C(C)(C)C)c1ccc(-c2c(F)cccc2F)cc1`, the IC50 is 0.0269 µM at GTPase KRas/RAF1 and 0.00852 µM in assay [1].

The IC50 is the concentration needed to halve the response being measured. Read a low IC50 as greater potency in that assay.
